Values belong to the substance of their own block, whether it stands above or below them.
System: IgE antibodies from patients
Test: Wheat epitope mapping (2): overlapping 10-amino-acid peptide fragments shifted by one amino acid;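 on Rank of partial sequence as epitope binding to IgE antibody: key = sequence deemed particularly important within the common 15-residue sequence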;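 on epitope sequence binding to IgE antibody, rank (Key/Preferably/More preferably): key of grades: preferably = shorter partial sequence still acting as epitope; more preferably = sequence improving IgE binding; key = particularly important sequence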
Type: binding, human
Procedure, shortened: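 Cellulose-bound 10-mer peptides offset by one residue were probed with patient serum IgE and detected by chemiluminescence. Secondary-antibody-only signals were subtracted per peptide. Residual binding was expressed as % of the parent overlapping peptide, scored as none (<30%), poor (30–<50%), somewhat poor (50–<70%) or retained (≥70%).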

[1] = serum of patient G2 (adult, general immediate type allergy to wheat), partial sequence
[2] = serum of patient P14 (WDEIA), sequence without X
[3] = serum of patient P50 (child, general immediate type allergy to wheat), sequence without X
[4] = serum of patient G3 (adult, general immediate type allergy to wheat), partial sequence
[5] = serum of patient P26 (WDEIA), partial sequence
[6] = serum of patient P36 (WDEIA), sequence without X
[7] = serum of patient P25 (WDEIA), sequence without X
[8] = serum of patient P8 (WDEIA), sequence without X

Epitope sequence binding to IgE antibody, rank of the sequence (serum of patient P20 (WDEIA), partial sequence): Preferably
Substance: 2643 (KEAAEMN; REGION 1..7: note = epitope) [compound 2643]

Epitope sequence binding to IgE antibody, rank of the sequence (Key/Preferably/More preferably) (serum of patient P34 (WDEIA), sequence without X): Key
Substance: 2328 (IIYSI; REGION 1..5: note = epitope) [compound 2328]

Rank of partial sequence as epitope binding to IgE antibody (serum of patient P21 (WDEIA), sequence without X): Key
Substance: 1445 (YLQPQ; REGION 1..5: note = epitope) [compound 1445]

epitope sequence binding to IgE antibody, rank (Key/Preferably/More preferably) (serum of patient P3 (WDEIA)): Key
Substance: 1790 (SGKELE; REGION 1..6: note = epitope) [compound 1790]

Epitope sequence binding to IgE antibody, rank of the sequence [1]: Key
Substance: 2528 (SSQVSF; REGION 1..6: note = epitope) [compound 2528]

epitope sequence binding to IgE antibody, rank (Key/Preferably/More preferably) (serum of patient P7 (WDEIA)): Key
Substance: 1755 (YLKK; REGION 1..4: note = epitope) [compound 1755]

Epitope sequence binding to IgE antibody, rank of the sequence (serum of patient P3 (WDEIA), sequence without X): Key
Substance: 1170 (FPPQQP; REGION 1..6: note = epitope) [compound 1170]

epitope sequence binding to IgE antibody, rank (Key/Preferably/More preferably) (serum of patient P32 (WDEIA)): Key
Substance: 1818 (PKFL; REGION 1..4: note = epitope) [compound 1818]

epitope sequence binding to IgE antibody, rank (Key/Preferably/More preferably) (serum of patient P55 (child, general immediate type allergy to wheat)): Key
Substance: 1773 (EVSSYLKK; REGION 1..8: note = epitope) [compound 1773]

Rank of partial sequence as epitope binding to IgE antibody (serum of patient P35 (WDEIA), sequence without X): Key
Substance: 1488 (YLQPQQPIS; REGION 1..9: note = epitope) [compound 1488]

Epitope sequence binding to IgE antibody, rank of the sequence (Key/Preferably/More preferably) [2]: Key
Substance: 2279 (LGGIDK; REGION 1..6: note = epitope) [compound 2279]

epitope sequence binding to IgE antibody, rank (Key/Preferably/More preferably) (serum of patient P21 (WDEIA)): Preferably
Substance: 1939 (QVPLVQQ; REGION 1..7: note = epitope) [compound 1939]

Epitope sequence binding to IgE antibody, rank of the sequence (serum of patient P34 (WDEIA), partial sequence): Key
Substance: 2746 (KIGGI; REGION 1..5: note = epitope) [compound 2746]

Rank of partial sequence as epitope binding to IgE antibody [3]: Preferably
Substance: 1590 (QPFPQTQQPQ; REGION 1..10: note = epitope) [compound 1590]

epitope sequence binding to IgE antibody, rank (Key/Preferably/More preferably) (serum of patient P21 (WDEIA)): Key
Substance: 1940 (VPLVQ; REGION 1..5: note = epitope) [compound 1940]

epitope sequence binding to IgE antibody, rank (Key/Preferably/More preferably) (serum of patient P32 (WDEIA)): Key
Substance: 1962 (QQQFPGQQ; REGION 1..8: note = epitope) [compound 1962]

Epitope sequence binding to IgE antibody, rank of the sequence (serum of patient P24 (WDEIA), partial sequence): Key
Substance: 2617 (SKRV; REGION 1..4: note = epitope) [compound 2617]

Rank of partial sequence as epitope binding to IgE antibody (serum of patient P16 (WDEIA), sequence without X): Preferably
Substance: 1437 (PQQPISQQQA; REGION 1..10: note = epitope) [compound 1437]

Epitope sequence binding to IgE antibody, rank of the sequence (serum of patient P33 (WDEIA), sequence without X): Key
Substance: 1282 (LPRS; REGION 1..4: note = epitope) [compound 1282]

Epitope sequence binding to IgE antibody, rank of the sequence (serum of patient P51 (child, general immediate type allergy to wheat), sequence without X): Preferably
Substance: 1360 (INVEN; REGION 1..5: note = epitope) [compound 1360]

epitope sequence binding to IgE antibody, rank (Key/Preferably/More preferably) (serum of patient P30 (WDEIA)): Key
Substance: 1873 (TVRTLQR; REGION 1..7: note = epitope) [compound 1873]

Epitope sequence binding to IgE antibody, rank of the sequence [4]: Key
Substance: 2696 (YKGPTL; REGION 1..6: note = epitope) [compound 2696]

Epitope sequence binding to IgE antibody, rank of the sequence (serum of patient P30 (WDEIA), partial sequence): Key
Substance: 2737 (KIGG; REGION 1..4: note = epitope) [compound 2737]

epitope sequence binding to IgE antibody, rank (Key/Preferably/More preferably) (serum of patient P5 (WDEIA)): Preferably
Substance: 1839 (TVRTLQR; REGION 1..7: note = epitope) [compound 1839]

Epitope sequence binding to IgE antibody, rank of the sequence (Key/Preferably/More preferably) (serum of patient P9 (WDEIA), sequence without X): Key
Substance: 2347 (VTEI; REGION 1..4: note = epitope) [compound 2347]

epitope sequence binding to IgE antibody, rank (Key/Preferably/More preferably) (serum of patient P53 (child, general immediate type allergy to wheat)): Key
Substance: 1732 (KEAA; REGION 1..4: note = epitope) [compound 1732]

epitope sequence binding to IgE antibody, rank (Key/Preferably/More preferably) (serum of patient P26 (WDEIA)): Preferably
Substance: 1811 (ALPKFLKNG; REGION 1..9: note = epitope) [compound 1811]

epitope sequence binding to IgE antibody, rank (Key/Preferably/More preferably) (serum of patient P19 (WDEIA)): Preferably
Substance: 1859 (YTVRTLQR; REGION 1..8: note = epitope) [compound 1859]

Epitope sequence binding to IgE antibody, rank of the sequence (serum of patient P31 (WDEIA), partial sequence): Key
Substance: 2740 (KIGGI; REGION 1..5: note = epitope) [compound 2740]

epitope sequence binding to IgE antibody, rank (Key/Preferably/More preferably) (serum of patient P52 (child, general immediate type allergy to wheat)): Key
Substance: 1728 (KEAANF; REGION 1..6: note = epitope) [compound 1728]

Epitope sequence binding to IgE antibody, rank of the sequence [5]: Preferably
Substance: 2722 (YKIGG; REGION 1..5: note = epitope) [compound 2722]

Epitope sequence binding to IgE antibody, rank of the sequence (serum of patient P22 (WDEIA), sequence without X): Key
Substance: 1195 (QFPPQQPYPQ; REGION 1..10: note = epitope) [compound 1195]

epitope sequence binding to IgE antibody, rank (Key/Preferably/More preferably) (serum of patient P3 (WDEIA)): Key
Substance: 1902 (QQFPGQQ; REGION 1..7: note = epitope) [compound 1902]

Epitope sequence binding to IgE antibody, rank of the sequence (serum of patient G7 (adult, general immediate type allergy to wheat), sequence without X): Further preferably
Substance: 1162 (SIDQNAQG; REGION 1..8: note = epitope) [compound 1162]

Epitope sequence binding to IgE antibody, rank of the sequence [6]: Key
Substance: 1256 (PQQPP; REGION 1..5: note = epitope) [compound 1256]

Epitope sequence binding to IgE antibody, rank of the sequence (Key/Preferably/More preferably/Further preferably) [3]: Key
Substance: 2296 (GIDK; REGION 1..4: note = epitope) [compound 2296]

Epitope sequence binding to IgE antibody, rank of the sequence (Key/Preferably/More preferably) [7]: Key
Substance: 2314 (SRYDAIR; REGION 1..7: note = epitope) [compound 2314]

Epitope sequence binding to IgE antibody, rank of the sequence (Key/Preferably/More preferably/Further preferably) [3]: Preferably
Substance: 2295 (LGGIDKRV; REGION 1..8: note = epitope) [compound 2295]

Epitope sequence binding to IgE antibody, rank of the sequence [1]: Key
Substance: 2621 (LLAS; REGION 1..4: note = epitope) [compound 2621]

Rank of partial sequence as epitope binding to IgE antibody [8]: Preferably
Substance: 1520 (QVPLVQQ; REGION 1..7: note = epitope) [compound 1520]

epitope sequence binding to IgE antibody, rank (Key/Preferably/More preferably) (serum of patient P17 (WDEIA)): Preferably
Substance: 1853 (TVRTLQR; REGION 1..7: note = epitope) [compound 1853]

epitope sequence binding to IgE antibody, rank (Key/Preferably/More preferably) (serum of patient P19 (WDEIA)): Key
Substance: 1936 (QVPLVQQ; REGION 1..7: note = epitope) [compound 1936]

Epitope sequence binding to IgE antibody, rank of the sequence (Key/Preferably/More preferably) (serum of patient P29 (WDEIA), sequence without X): Preferably
Substance: 2384 (YVTEIVL; REGION 1..7: note = epitope) [compound 2384]

Epitope sequence binding to IgE antibody, rank of the sequence (serum of patient P21 (WDEIA), partial sequence): Key
Substance: 2559 (LVQQLCC; REGION 1..7: note = epitope) [compound 2559]

epitope sequence binding to IgE antibody, rank (Key/Preferably/More preferably) (serum of patient G9 (adult, general immediate type allergy to wheat)): Preferably
Substance: 1786 (KEVSSYLKK; REGION 1..9: note = epitope) [compound 1786]

Epitope sequence binding to IgE antibody, rank of the sequence (serum of patient P31 (WDEIA), sequence without X): Key
Substance: 1246 (PQQPP; REGION 1..5: note = epitope) [compound 1246]

Epitope sequence binding to IgE antibody, rank of the sequence [2]: Preferably
Substance: 1385 (KPWQQQPLP; REGION 1..9: note = epitope) [compound 1385]

Epitope sequence binding to IgE antibody, rank of the sequence [8]: Key
Substance: 1177 (QQFPPQ; REGION 1..6: note = epitope) [compound 1177]

Rank of partial sequence as epitope binding to IgE antibody [7]: Key
Substance: 1702 (SQVIIM; REGION 1..6: note = epitope) [compound 1702]

epitope sequence binding to IgE antibody, rank (Key/Preferably/More preferably) (serum of patient G5 (adult, general immediate type allergy to wheat)): Preferably
Substance: 1887 (YTVRTLQRTV; REGION 1..10: note = epitope) [compound 1887]

Rank of partial sequence as epitope binding to IgE antibody (serum of patient P32 (WDEIA), sequence without X): Key
Substance: 1478 (YLQPQQPIS; REGION 1..9: note = epitope) [compound 1478]

Epitope sequence binding to IgE antibody, rank of the sequence [4]: Key
Substance: 2605 (QLVQ; REGION 1..4: note = epitope) [compound 2605]

Epitope sequence binding to IgE antibody, rank of the sequence (serum of patient P29 (WDEIA), partial sequence): Key
Substance: 2735 (GIGTVPVGRV; REGION 1..10: note = epitope) [compound 2735]

Rank of partial sequence as epitope binding to IgE antibody [6]: Preferably
Substance: 1646 (YNPDKVPF; REGION 1..8: note = epitope) [compound 1646]

Epitope sequence binding to IgE antibody, rank of the sequence (serum of patient P12 (WDEIA), sequence without X): Preferably
Substance: 1179 (QQFPPQQ; REGION 1..7: note = epitope) [compound 1179]

epitope sequence binding to IgE antibody, rank (Key/Preferably/More preferably) (serum of patient P10 (WDEIA)): Key
Substance: 1919 (VPLVQQQ; REGION 1..7: note = epitope) [compound 1919]

Epitope sequence binding to IgE antibody, rank of the sequence [5]: Key
Substance: 2724 (GIGTVPVGRV; REGION 1..10: note = epitope) [compound 2724]

Rank of partial sequence as epitope binding to IgE antibody (serum of patient P10 (WDEIA), sequence without X): More preferably
Substance: 1524 (QVPLVQQQQ; REGION 1..9: note = epitope) [compound 1524]

— US20240393292A1, “ALLERGY ANTIGEN AND EPITOPE THEREOF” (HOYU CO., LTD., priority 2019, published 2024)
